Data reported in patent US20230271959A1, “HETEROCYCLIC COMPOUND AS BCL-2 INHIBITOR” (Beijing Innocare Pharma Tech Co., Ltd., priority 2020, published 2023).

Key:
[1] = target: T1, human recombinant Bcl-2 protein (Homo sapiens, UniProt P10415); test: Fluorescence polarization test for inhibition of BCL-2 binding to FITC-BIM; conditions: 5 nM BCL-2, 5 nM FITC-BIM, read-out: FP BCL-2 IC50
T1 construct: purchased Beijing Yigiao Shenzhou Biotechnology Co., Ltd. 10195-HOSE
How it was run: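 FP competition: compound preincubated 15 min with recombinant human Bcl-2 (diluted to 5 nM), then FITC-BIM (diluted to 5 nM) added for 30 min at room temperature in PBS pH 7.4 with 1 mM DTT. Polarization read at 480/535 nm; IC50 from 8-point 4-fold series fitted by four-parameter equation.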

[2] = target: T2, human recombinant Bcl-XL protein (Homo sapiens, UniProt Q07817); test: Fluorescence polarization test for inhibition of BCL-XL binding to FITC-BIM; conditions: 10 nM BCL-XL, 10 nM FITC-BIM, read-out: FP BCL-XL IC50
T2 construct: purchased Beijing Yiqiao Shenzhou Biotechnology Co., Ltd. 10455-H0SE
How it was run: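 Human recombinant Bcl-XL (10 nM diluted stock) preincubated with compound 15 min at RT in PBS pH 7.4, 1 mM DTT, then FITC-BIM peptide (10 nM diluted stock) added for 30 min in dark. FP read at ex 480/em 535 nm; no-protein wells = 100% inhibition; IC50 from 8-point 4-fold dilution curve fit.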

[3] = test system: RS4;11 cells (acute lymphoblastic leukemia cells); test: RS4;11 cell proliferation, CellTilter-Glo luminescence cell viability assay; format: cell-based; conditions: Homo sapiens, RS4-11; CTG readout after 48 hours
How it was run: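 RS4;11 cells plated overnight were exposed for 48 h at 37 °C, 5% CO2 to an 8-point, 4-fold compound dilution series; the vehicle control contained 0.2% DMSO. Viability was read by CellTiter-Glo luminescence. Percent inhibition was referenced to no-cell and DMSO controls, and IC50 came from a four-parameter sigmoidal fit.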

T1 sequence (P10415 whole entry): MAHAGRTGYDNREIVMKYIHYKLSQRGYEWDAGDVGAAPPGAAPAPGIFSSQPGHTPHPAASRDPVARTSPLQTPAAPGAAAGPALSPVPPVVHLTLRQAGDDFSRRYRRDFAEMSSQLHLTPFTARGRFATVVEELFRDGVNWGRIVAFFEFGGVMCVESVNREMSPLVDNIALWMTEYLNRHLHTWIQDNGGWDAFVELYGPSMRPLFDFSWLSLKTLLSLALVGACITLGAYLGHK
T2 sequence (Q07817 whole entry): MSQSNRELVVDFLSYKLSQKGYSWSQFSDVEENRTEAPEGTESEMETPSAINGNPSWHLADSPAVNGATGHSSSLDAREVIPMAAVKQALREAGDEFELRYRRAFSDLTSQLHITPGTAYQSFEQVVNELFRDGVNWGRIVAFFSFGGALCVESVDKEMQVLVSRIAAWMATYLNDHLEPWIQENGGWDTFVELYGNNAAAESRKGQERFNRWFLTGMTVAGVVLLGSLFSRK

Row | SMILES | IC50 [1] | IC50 [2] | IC50 [3]
1 | C[C@@H]1CN(c2ccc(C(=O)NS(=O)(=O)c3ccc(NCC4CCOCC4)c([N+](=O)[O-])c3)c(Oc3cnc4[nH]ccc4c3)c2)CCN1CC1=C(c2ccc(Cl)cc2)CCC(C)(C)C1 [Example 27, (R)-2-((1H-pyrrolo[2,3-b]pyridin-5-yl)oxy)-4-(4-((4′-chloro-4,4-dimethyl-3,4,5,6-tetrahydro-[1,1′-biphenyl]-2-yl)methyl)-3-methylpiperazin-1-yl)-N-((3-nitro-4--(((tetrahydro-2H-pyran-4-yl)methyl)amino)phenyl)sulfonyl)benzamide] | 5.12 nM | > 1000 nM | 16 nM
2 | C[C@@H]1CN(c2ccc(C(=O)NS(=O)(=O)c3cc(F)c(NCC4CCOCC4)c([N+](=O)[O-])c3)c(Oc3cnc4[nH]ccc4c3)c2)CCN1CC1=C(c2ccc(Cl)cc2)CCC(C)(C)C1 [Example 28, (R)-2-((1H-pyrrolo[2,3-b]pyridin-5-yl)oxy)-4-(4-((4′-chloro-4,4-dimethyl-3,4,5,6-tetrahydro-[1,1′-biphenyl]-2-yl)methyl)-3-methylpiperazin-1-yl)-N-((3-fluoro-5-nitro-4--(((tetrahydro-2H-pyran-4-yl)methyl)amino)phenyl)sulfonyl)benzamide] | 1.37 nM | > 1000 nM | 6.55 nM
3 | C[C@@H]1CN(c2ccc(C(=O)NS(=O)(=O)c3ccc(NC[C@H]4COCCO4)c([N+](=O)[O-])c3)c(Oc3cnc4[nH]ccc4c3)c2)CCN1CC1=C(c2ccc(Cl)cc2)CCC(C)(C)C1 [Example 29, N-((4-((((S)-1,4-dioxan-2-yl)methyl)amino)-3-nitrophenyl)sulfonyl)-2-((1H-pyrrolo[2,3-b]pyridin-5-yl)oxy)-4-((R)-4-((4′-chloro-4,4-dimethyl-3,4,5,6-tetrahydro-[1,1′-biphenyl]-2-yl)methyl)-3-methylpiperazin-1-yl) benzamide] | 1.6 nM | > 1000 nM | 4.2 nM
4 | C[C@@H]1CN(c2ccc(C(=O)NS(=O)(=O)c3cc(F)c(NC[C@H]4COCCO4)c([N+](=O)[O-])c3)c(Oc3cnc4[nH]ccc4c3)c2)CCN1CC1=C(c2ccc(Cl)cc2)CCC(C)(C)C1 [Example 30, N-((4-((((S)-1,4-dioxan-2-yl)methyl)amino)-3-fluoro-5-nitrophenyl)sulfonyl)-2-((1H-pyrrolo[2,3-b]pyridin-5-yl)oxy)-4-((R)-4-((4′-chloro-4,4-dimethyl-3,4,5,6-tetrahydro-[1,1′-biphenyl]-2-yl)methyl)-3-methylpiperazin-1-yl)benzamide] | 0.84 nM | 831 nM | 2.3 nM
5 | C[C@@H]1CN(c2ccc(C(=O)NS(=O)(=O)c3ccc(NCC4CCOCC4)c([N+](=O)[O-])c3)c(Oc3cnc4[nH]ccc4c3)c2)CCN1CC1=C(c2ccc(Cl)cc2)CC(C)(C)C2(CC2)C1 [Example 31, (R)-2-((1H-Pyrrolo[2,3-b]pyridin-5-yl)oxy)-4-(4-((6-(4-chlorophenyl)-8,8-dimethylspiro[2.5]oct-5-en-5-yl)methyl)-3-methylpiperazin-1-yl)-N-((3-nitro-4-(((tetrahydro-2H-pyran-4-yl)methyl)amino)phenyl)sulfonyl)benzamide] | 3.57 nM | > 1000 nM | 8.1 nM
6 | C[C@@H]1CN(c2ccc(C(=O)NS(=O)(=O)c3cc(F)c(NC[C@H]4COCCO4)c([N+](=O)[O-])c3)c(Oc3cnc4[nH]ccc4c3)c2)CCN1CC1=C(c2ccc(Cl)cc2)CC(C)(C)C2(CC2)C1 [Example 32, N-((4-((((S)-1,4-dioxan-2-yl)methyl)amino)-3-fluoro-5-nitrophenyl)-sulfonyl)-2-((1H-pyrrolo [2,3-b]pyridin-5-yl)oxy)-4-((R)-4-((6-(4-chlorophenyl)-8,8-dimethylspiro[2.5]oct-5-en-5-yl)methyl)-3-methylpiperazin-1-yl) benzamide] | 1.8 nM | > 1000 nM | 6.6 nM
7 | C[C@@H]1CN(c2ccc(C(=O)NS(=O)(=O)c3cc(F)c(NCC4CCOCC4)c([N+](=O)[O-])c3)c(Oc3cnc4[nH]ccc4c3)c2)CCN1CC1=C(c2ccc(Cl)cc2)CC(C)(C)C2(CC2)C1 [Example 33] | 3.16 nM | > 1000 nM | 16 nM
8 | C[C@@H]1CN(c2ccc(C(=O)NS(=O)(=O)c3ccc(NC[C@H]4COCCO4)c([N+](=O)[O-])c3)c(Oc3cnc4[nH]ccc4c3)c2)CCN1CC1=C(c2ccc(Cl)cc2)CC(C)(C)C2(CC2)C1 [Example 34, N-((4-((((S)-1,4-dioxan-2-yl)methyl)amino)-3-nitrophenyl)sulfonyl)-2-((1H-pyrrolo[2,3-b]pyridin-5-yl)oxy)-4-((R)-4-((6-(4-chlorophenyl)-8,8-dimethylspiro[2.5]oct-5-en-5-yl)methyl)-3-methylpiperazin-1-yl) benzamide] | 3.33 nM | > 1000 nM | 6.6 nM
9 | C[C@@H]1CN(c2ccc(C(=O)NS(=O)(=O)c3cc(F)c(NC[C@H]4COCCO4)c([N+](=O)[O-])c3)c(Oc3cnc4[nH]ccc4c3)c2)CCN1CC1=C(c2ccc(Cl)cc2)CCC2(CC2)C1 [Example 35, N-((4-((((S)-1,4-dioxan-2-yl)methyl)amino)-3-fluoro-5-nitrophenyl)sulfonyl)-2-((1H-pyrrolo[2,3-b]pyridin-5-yl)oxy)-4-((R)-4-((6-(4-chlorophenyl)spiro[2.5]oct-5-en-5-yl)methyl)-3-methylpiperazin-1-yl)benzamide] | 2.96 nM | > 1000 nM | 17 nM
10 | C[C@@H]1CN(c2ccc(C(=O)NS(=O)(=O)c3ccc(NC[C@H]4COCCO4)c([N+](=O)[O-])c3)c(Oc3cnc4[nH]ccc4c3)c2)CCN1CC1=C(c2ccc(Cl)cc2)CCC2(CC2)C1 [Example 36] | 4.78 nM | > 1000 nM | 21 nM
11 | C[C@@H]1CN(c2ccc(C(=O)NS(=O)(=O)c3cc(F)c(NCC4CCOCC4)c([N+](=O)[O-])c3)c(Oc3cnc4[nH]ccc4c3)c2)CCN1CC1=C(c2ccc(Cl)cc2)CCC2(CC2)C1 [Example 37] | 3.15 nM | > 1000 nM | 22 nM
12 | C[C@@H]1CN(c2ccc(C(=O)NS(=O)(=O)c3ccc(NCC4CCOCC4)c([N+](=O)[O-])c3)c(Oc3cnc4[nH]ccc4c3)c2)CCN1CC1=C(c2ccc(Cl)cc2)CCC2(CC2)C1 [Example 38] | 5.24 nM | > 1000 nM | 32 nM
13 | C[C@@H]1CN(c2ccc(C(=O)NS(=O)(=O)c3ccc(NCC4CCOCC4)c([N+](=O)[O-])c3)c(Oc3cnc4[nH]ccc4c3)c2)CCN1CC1=C(c2ccc(Cl)cc2)CC(C)(C)C(C)(C)C1 [Example 39, (R)-2-((1H-pyrrolo[2,3-b]pyridin-5-yl)oxy)-4-(4-((4′-chloro-4,4,5,5-tetramethyl-3,4,5,6-tetrahydro-[1,1′-biphenyl]-2-yl)methyl)-3-methylpiperazin-1-yl)-N-((3-nitro-4--(((tetrahydro-2H-pyran-4-yl)methyl)amino)phenyl)sulfonyl)benzamide] | 2.68 nM | > 1000 nM | 14.5 nM
14 | C[C@@H]1CN(c2ccc(C(=O)NS(=O)(=O)c3cc(F)c(NCC4CCOCC4)c([N+](=O)[O-])c3)c(Oc3cnc4[nH]ccc4c3)c2)CCN1CC1=C(c2ccc(Cl)cc2)CC(C)(C)C(C)(C)C1 [Example 40] | 1.77 nM | > 1000 nM | 15 nM
